Source: patent US11389415B2, “Methods of regulating cannabinoid receptor activity-related disorders and diseases” (The United States of America as represented by the …, priority 2012, dated 2022)

Test system: rat C6 glioma xenografts
Assay: Gene expression profiling (microarray, GO term and PAGE gene set analysis) in rat C6 glioma xenografts
Assay type: in vivo, mouse
Settings: MNF_Control
Method: Analysis of gene expression in rat C6 glioma xenografts. Total RNA was isolated from rat C6 glioma xenografts harvested from vehicle and MNF-treated mice (n=3 per group, cohort 1). This analysis was repeated in a second cohort of animals (n=3 per group, cohort 2). Total cellular RNA was extracted using an RNeasy plus mini kit (QIAGEN, Valencia, Calif.), and its quality was assessed using an Agilent BioAnalyzer using RNA 6000 Nano Chips (Agilent Technologies, Santa Clara, Calif.). Transcriptional profiling was determined using Illumina Sentrix BeadChips (Illumina, San Diego, Calif.). Total RNA was used to generate biotin-labeled cRNA with the Illumina TotalPrep RNA Amplification Kit. In short, 0.5 ug of total RNA was first converted into single-stranded cDNA with reverse transcriptase using an oligo-dT primer containing the T7 RNA polymerase promoter site and then copied to produce double-stranded cDNA molecules. The double-stranded cDNA was cleaned and concentrated with the supplied columns and used in an overnight in-vitro transcription reaction where single-stranded RNA (cRNA) was generated incorporating biotin-16-UTP. A total of 0.75 μg of biotin-labeled cRNA was hybridized at 58° C. for 16 hours to Illumina's Sentrix Rat Ref-12 Expression BeadChips. Each BeadChip has ˜22,000 well-annotated RefSeq transcripts with approximately 30-fold redundancy. The arrays were washed, blocked and the labeled cRNA was detected by staining with streptavidin-Cy3. Hybridized arrays were scanned using an Illumina BeadStation 500× Genetic Analysis Systems scanner and the image data extracted using Illumina's GenomeStudio software, version 1.6.1. For statistical analysis, the expression data were filtered to include only probes with a consistent signal on each chip and an Illumina detecton p value <0.02.
Correlation analysis, sample clustering analysis and principal component analysis was performed to identify/exclude any possible outliers. The resulting dataset was next analyzed with DIANE 6.0, a spreadsheet-based microarray analysis program using value statistics for Z-Score reliability below 0.05; and mean background-corrected signal intensity greater than zero.
Gene set enrichment analysis use gene expression values or gene expression change values for all of the genes in the microarray. Parametric analysis of gene set enrichment (PAGE) was used using the WEB-PAGE GSA tool for gene set analysis. Gene Sets include the MSIG database, Gene Ontology Database, GAD human disease and mouse phenotype gene sets were used to explore functional level changes. Gene-gene interaction was also analyzed using the INGENUITY® Pathway Analysis (IPA) system (INGENUITY® Systems).

COc1ccc(C[C@@H](C)NC[C@H](O)c2cc(O)cc(O)c2)c2ccccc12 [(R,R′)-MNF, (R,R′)-4′-methoxy-1-naphthylfenoterol]
Z score, ADIP_DIFF_CLUSTERS (cohort 1): −4.6054 | Z score, ATRBRCAPATHWAY (cohort 1): −1.8815 | Z score, BRCA_PROGNOSIS_NEG (cohort 1): −3.2974 | Z score, BRENTANI_REPAIR (cohort 1): −3.8568 | Z score, CANCER_UNDIFFERENTIATED_META_UP (cohort 1): −4.8288 | Z score, CELL_CYCLE (cohort 1): −5.0187 | Z score, CELL_CYCLE_KEGG (cohort 1): −4.1925 | Z score, CMV_IE86_UP (cohort 1): −6.1497 | Z score, CROONQUEST_IL6_STARVE_UP (cohort 1): −6.5055 | Z score, CROONQUIST_IL6_RAS_DN (cohort 1): −6.7147 | Z score, DAC_FIBRO_DN (cohort 1): −4.4476 | Z score, DNA_REPLICATION_REACTOME (cohort 1): −3.8683 | Z score, DOX_RESIST_GASTRIC_UP (cohort 1): −5.8557 | Z score, E2F1_DNA_UP (cohort 1): −3.6781 | Z score, GAY_YY1_DN (cohort 1): −7.6370 | Z score, GOLDRATH_HP (cohort 1): −2.4433 | Z score, HDACI_COLON_BUT12 HRS_UP (cohort 1): 5.3212 | Z score, HDACI_COLON_BUT16HRS_UP (cohort 1): 3.6723 | Z score, HDACI_COLON_BUT24HRS_UP (cohort 1): 3.0864 | Z score, HDACI_COLON_TSABUT_UP (cohort 1): 4.1465 | Z score, HIPPOCAMPUS_DEVELOPMENT_POSTNATAL (cohort 1): 3.6731 | Z score, HOFFMANN_BIVSBII_BI_TABLE2 (cohort 1): −5.1273 | Z score, HYPOPHYSECTOMY_RAT_DN (cohort 1): 3.6187 | Z score, IDX_TSA_UP_CLUSTER3 (cohort 1): −6.1057 | Z score, IRITANI_ADPROX_LYMPH (cohort 1): −5.1468 | Z score, KAMMINGA_EZH2_TARGETS (cohort 1): −5.3211 | Z score, KENNY_WNT_UP (cohort 1): −4.0135 | Z score, LAMB_CYCLIN_D3_GLOCUS (cohort 1): −2.8637 | Z score, LEE_TCELLS2_UP (cohort 1): −4.1051 | Z score, LEE_TCELLS3_UP (cohort 1): −7.2409 | Z score, LI_FETAL_VS_WT_KIDNEY_DN (cohort 1): −5.4447 | Z score, MANALO_HYPOXIA_DN (cohort 1): −3.2723 | Z score, MIDDLEAGE_DN (cohort 1): −3.6696 | Z score, MOREAUX_TACI_HI_IN_PPC_UP (cohort 1): −2.9881 | Z score, MOREAUX_TACI_HI_VS_LOW_DN (cohort 1): −4.3721 | Z score, OLDAGE_DN (cohort 1): −4.5391 | Z score, P21_P53_ANY_DN (cohort 1): −5.0275 | Z score, PEART_HISTONE_DN (cohort 1): −2.5055 | Z score, PODI_KO_UP (cohort 1): −3.9363 | Z score, PRMT5_KD_UP (cohort 1): −9.3903 | Z score, REN_E2F1_TARGETS (cohort 1): −2.9150 | Z score, SASAKI_ATL_UP (cohort 1): −5.0963 | Z score, SASAKI_TCELL_LYMPHOMA_VS_CD4_UP (cohort 1): −5.0963 | Z score, SERUM_FIBROBLAST_CELLCYCLE (cohort 1): −7.2985 | Z score, SHEPARD_BMYB_MORPHOLINO_DN (cohort 1): −4.3350 | Z score, SHEPARD_CRASH_AND_BURN_MUT_VS_WT_DN (cohort 1): −3.9994 | Z score, SHEPARD_GENES_COMMON_BW_CB_MO (cohort 1): −4.0300 | Z score, STEMCELL_NEURAL_UP (cohort 1): −6.0983 | Z score, TARTE_MATURE_PC (cohort 1): 3.6636 | Z score, TARTE_PLASMA_BLASTIC (cohort 1): −4.8905 | Z score, VERNELL_PRB_CLSTR1 (cohort 1): −3.4691 | Z score, YU_CMYC_UP (cohort 1): −4.4689 | Z score, ZHAN_MM_CD138_PR_VS_REST (cohort 1): −6.1404 | Z score, ADIP_DIFF_CLUSTERS (cohort 2): −6.8850 | Z score, ATRBRCAPATHWAY (cohort 2): −2.9977 | Z score, BRCA_PROGNOSIS_NEG (cohort 2): −5.4682 | Z score, BRENTANI_REPAIR (cohort 2): −2.9453 | Z score, CANCER_UNDIFFERENTIATED_META_UP (cohort 2): −6.2847 | Z score, CELL_CYCLE (cohort 2): −7.4222 | Z score, CELL_CYCLE_KEGG (cohort 2): −7.0955 | Z score, CMV_IE86_UP (cohort 2): −6.5954 | Z score, CROONQUEST_IL6_STARVE_UP (cohort 2): −9.0059 | Z score, CROONQUIST_IL6_RAS_DN (cohort 2): −7.7040 | Z score, DAC_FIBRO_DN (cohort 2): −4.9523 | Z score, DNA_REPLICATION_REACTOME (cohort 2): −6.5700 | Z score, DOX_RESIST_GASTRIC_UP (cohort 2): −8.6145 | Z score, E2F1_DNA_UP (cohort 2): −4.4885 | Z score, GAY_YY1_DN (cohort 2): −4.7456 | Z score, GOLDRATH_HP (cohort 2): −2.2875 | Z score, HDACI_COLON_BUT12 HRS_UP (cohort 2): 3.6676 | Z score, HDACI_COLON_BUT16HRS_UP (cohort 2): 3.4287 | Z score, HDACI_COLON_BUT24HRS_UP (cohort 2): 3.3154 | Z score, HDACI_COLON_TSABUT_UP (cohort 2): 3.4480 | Z score, HIPPOCAMPUS_DEVELOPMENT_POSTNATAL (cohort 2): 10.3312 | Z score, HOFFMANN_BIVSBII_BI_TABLE2 (cohort 2): −7.7114 | Z score, HYPOPHYSECTOMY_RAT_DN (cohort 2): 3.9294 | Z score, IDX_TSA_UP_CLUSTER3 (cohort 2): −10.1593 | Z score, IRITANI_ADPROX_LYMPH (cohort 2): −3.3728 | Z score, KAMMINGA_EZH2_TARGETS (cohort 2): −7.2448 | Z score, KENNY_WNT_UP (cohort 2): −5.5586 | Z score, LAMB_CYCLIN_D3_GLOCUS (cohort 2): −4.3054 | Z score, LEE_TCELLS2_UP (cohort 2): −5.6671 | Z score, LEE_TCELLS3_UP (cohort 2): −8.0339 | Z score, LI_FETAL_VS_WT_KIDNEY_DN (cohort 2): −9.1715 | Z score, MANALO_HYPOXIA_DN (cohort 2): −6.1956 | Z score, MIDDLEAGE_DN (cohort 2): −7.7600 | Z score, MOREAUX_TACI_HI_IN_PPC_UP (cohort 2): −3.8456 | Z score, MOREAUX_TACI_HI_VS_LOW_DN (cohort 2): −3.2936 | Z score, OLDAGE_DN (cohort 2): −7.1043 | Z score, P21_P53_ANY_DN (cohort 2): −7.4300 | Z score, PEART_HISTONE_DN (cohort 2): −5.2170 | Z score, PODI_KO_UP (cohort 2): −4.3565 | Z score, PRMT5_KD_UP (cohort 2): −5.4620 | Z score, REN_E2F1_TARGETS (cohort 2): −3.5319 | Z score, SASAKI_ATL_UP (cohort 2): −5.5299 | Z score, SASAKI_TCELL_LYMPHOMA_VS_CD4_UP (cohort 2): −5.5299 | Z score, SERUM_FIBROBLAST_CELLCYCLE (cohort 2): −10.6997 | Z score, SHEPARD_BMYB_MORPHOLINO_DN (cohort 2): −4.7947 | Z score, SHEPARD_CRASH_AND_BURN_MUT_VS_WT_DN (cohort 2): −4.0540
